Reference: article PMC8976073 (Nature Communications, 2022)
Where a SMILES comes first, the peptide text is derived from it. The star is where a group is joined. For = O=C*

How the values were obtained:
FPR2 [1] = settings: cited from earlier work
Source text: The role of these residues in determining ligand selectivity was investigated by mutagenesis studies.

FPR2 [2] = molecular target: T1, FPR2 (Homo sapiens, UniProt P25090); test: Competition binding: inhibition of WK(FITC)YMVm binding to FPR2 (wild type and mutants), HEK293F cells; settings: FPR2 WT, mean ± SEM
T1 construct: expressed in transfected cells; host or cells: HEK293F cells, pTT5 vector, co-transfected with GαΔ6qi4myr (1:2 w/w)
T1 sequence (P25090 1-351): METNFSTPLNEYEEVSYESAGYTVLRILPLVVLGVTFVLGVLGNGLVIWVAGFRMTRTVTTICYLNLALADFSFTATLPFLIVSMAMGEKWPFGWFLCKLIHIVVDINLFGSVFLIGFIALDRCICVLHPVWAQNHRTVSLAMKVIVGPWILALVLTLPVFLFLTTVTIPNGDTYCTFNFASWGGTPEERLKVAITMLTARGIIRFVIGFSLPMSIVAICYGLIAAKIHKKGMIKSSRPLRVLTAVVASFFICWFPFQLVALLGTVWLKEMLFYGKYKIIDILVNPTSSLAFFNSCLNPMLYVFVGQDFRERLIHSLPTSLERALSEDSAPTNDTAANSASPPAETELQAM
Method: (§1) The genes of wild-type FPR1 and FPR2 and mutants with a Flag tag at the N termini were cloned into pTT5 vector (Invitrogen) and expressed in HEK293F cells (Invitrogen). Cells were harvested 48 h post transfection with 1 μg ml^−1 plasmid. Cell-surface expression of the receptors was measured by mixing 10 μl cells with 15 μl of TBS buffer supplemented with 4% BSA, 20% (v/v) viability-staining solution 7-AAD (Invitrogen, Cat#00-6993-50), and 0.1% (v/v) anti-FLAG M2-FITC antibody (Sigma, Cat#F4049) at 4 °C for 20 min. After incubation, 175 μl of TBS buffer was added and the fluorescent signal was measured using a flow-cytometry reader (Guava easyCyte HT, Millipore). Then, the cells were washed and resuspended to a final concentration of 1 × 10^6 cells per ml in Hanks’ Balanced Salt Solution (HBSS) buffer supplemented with 0.5% bovine serum albumin (BSA) and 20 mM HEPES, pH 7.4.
(§2) The mean fluorescent intensity of each well was then read by the FCM reader. Total binding and nonspecific binding were measured in the absence and presence of the unlabeled ligand (200 μM WKYMVm), respectively. […] Mean fluorescent-intensity values were measured by flow cytometry. Data were analyzed using Prism 8.0 (GraphPad software).

FPR2 [3] = molecular target: T2, FPR2 (Homo sapiens, UniProt P25090, S211L); test: as above; settings: FPR2 Construct 2, mean ± SEM
T2 construct: expressed in transfected cells; host or cells: HEK293F cells, pTT5 vector
Method: as §1, §2

FPR2 [4] = molecular target: T1, FPR2; test: Inositol-phosphate (IP) accumulation assay, FPR2 (wild type and mutants) with chimeric GαΔ6qi4myr in HEK293F cells; assay type: cell-based; settings: FPR2 WT; mean ± SEM; SEM
Method: Flag-tagged wild-type FPR1 and FPR2 and mutants were cloned into the pTT5 vector and expressed in HEK293F cells. Cells were cotransfected with the plasmids of receptor and a chimeric Gα protein GαΔ6qi4myr, which redirects the Gαi signaling pathway to the Gαq phospholipase-C pathway, at a ratio of 1:2 (w/w), and were harvested 48 h post transfection. The cell-surface expression was measured as described above.
The IP-One Gq assay kit (Cisbio Bioassays, 62IPAPEB) was used to measure the peptide agonist-induced IP production. […] Then, the cells were supplemented with 3 μl cryptate-labeled anti-IP1 monoclonal antibody (1:20 diluted in lysis and detection buffer) and 3 μl d2-labeled IP1, and incubated at room temperature for another 1 h. […] The accumulation of IP1, EC50, and pEC50 were calculated using nonlinear regression (curve fit) according to a standard dose–response curve in GraphPad Prism 8.0 (GraphPad software).

FPR1 = test: Competition binding: inhibition of WK(FITC)YMVm binding to FPR1 (wild type and mutants), HEK293F cells; set-up: species or system human; settings: FPR1 F81L, F102H, Y257F and their combination
Method: as §1, §2

T2 sequence (P25090 with tags, fused parts or gaps S211L): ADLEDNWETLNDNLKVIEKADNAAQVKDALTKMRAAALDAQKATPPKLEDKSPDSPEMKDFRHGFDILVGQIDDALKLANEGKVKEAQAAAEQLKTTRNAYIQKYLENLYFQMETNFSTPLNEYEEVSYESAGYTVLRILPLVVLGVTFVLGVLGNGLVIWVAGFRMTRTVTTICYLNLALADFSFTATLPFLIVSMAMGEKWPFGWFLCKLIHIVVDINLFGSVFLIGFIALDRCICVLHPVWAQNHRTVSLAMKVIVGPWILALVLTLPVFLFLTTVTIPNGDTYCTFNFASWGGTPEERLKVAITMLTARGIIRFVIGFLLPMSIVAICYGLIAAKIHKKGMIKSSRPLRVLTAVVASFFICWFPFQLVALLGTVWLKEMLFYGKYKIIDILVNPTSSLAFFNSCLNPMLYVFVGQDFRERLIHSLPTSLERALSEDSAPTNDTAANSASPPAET

Compound | Ki (FPR2 [2]) [nM] | further results
fMLFK [formylated tetrapeptide with a basic C-terminal residue] |  | binding to FPR2 (in words) (FPR2 [1]; compared with fMLFE): more favorable for binding to FPR2
CC[C@H](C)[C@H](NC(=O)[C@H](CC(N)=O)NC(=O)[C@@H](NC(=O)[C@H](Cc1ccccc1)NC(=O)[C@H](Cc1ccc(O)cc1)NC(=O)[C@H](CCSC)NC=O)[C@@H](C)CC)C(=O)N[C@@H](CC(C)C)C(=O)N[C@H](C(=O)N[C@@H](CC(C)C)C(=O)O)[C@@H](C)O [fM9] (For-MYFINILTL-OH) | 1410 | Ki (FPR2 [3]): 2630 nM; EC50 (FPR2 [4]): 813 nM
Humanin [HN] |  | agonistic activity FPR2 versus FPR1 (in words) (FPR2 [1]): much higher agonistic activity at FPR2 than at FPR1; fold higher binding affinity to FPR2 than Aβ42 (FPR2 [1]): over 15 fold
CC[C@H](C)[C@H](NC(=O)[C@H](CCC(=O)O)NC(=O)[C@H](CO)NC(=O)[C@@H](NC(=O)[C@H](C)NC(=O)[C@H](CC(C)C)NC(=O)[C@H](CC(C)C)NC(=O)[C@H](CC(C)C)NC(=O)[C@H](CS)NC(=O)[C@H](CO)NC(=O)[C@H](Cc1ccccc1)NC(=O)CNC(=O)[C@H](CCCNC(=N)N)NC(=O)[C@@H]1CCCN1C(=O)[C@H](C)NC(=O)[C@H](CCSC)NC=O)[C@@H](C)O)C(=O)N[C@@H](CC(=O)O)C(=O)N[C@@H](CC(C)C)C(=O)N1CCC[C@H]1C(=O)N[C@H](C(=O)N[C@@H](CCCCN)C(=O)N[C@@H](CCCNC(=N)N)C(=O)N[C@@H](CCCNC(=N)N)C(=O)N[C@@H](C)C(=O)O)C(C)C [L12A] (For-MAPRGFSCLLLATSEIDLPVKRRA-OH) | 832 | 
CSCC[C@H](NC=O)C(=O)N[C@@H](CC(C)C)C(=O)N[C@@H](Cc1ccccc1)C(=O)O [fMLF, N-formyl–Met–Leu–Phe] |  | agonism at FPR2 (in words) (FPR2 [1]): weak agonist; effect of mutations on binding affinity (in words) (FPR1): little effect on the binding affinity

The remaining compounds from weak to strong by Ki (FPR2 [2]), led by results:

Ki (FPR2 [2]) [nM] | Compound | further results
813 | CC[C@H](C)[C@H](NC(=O)[C@H](CCC(=O)O)NC(=O)[C@H](CO)NC(=O)[C@@H](NC(=O)[C@H](CC(C)C)NC(=O)[C@H](CC(C)C)NC(=O)[C@H](CC(C)C)NC(=O)[C@H](CC(C)C)NC(=O)[C@H](CS)NC(=O)[C@H](CO)NC(=O)[C@H](Cc1ccccc1)NC(=O)CNC(=O)[C@H](CCCNC(=N)N)NC(=O)[C@H](C)NC(=O)[C@H](C)NC(=O)[C@H](CCSC)NC=O)[C@@H](C)O)C(=O)N[C@@H](CC(=O)O)C(=O)N[C@@H](CC(C)C)C(=O)N1CCC[C@H]1C(=O)N[C@H](C(=O)N[C@@H](CCCCN)C(=O)N[C@@H](CCCNC(=N)N)C(=O)N[C@@H](CCCNC(=N)N)C(=O)N[C@@H](C)C(=O)O)C(C)C [P3A] (For-MAARGFSCLLLLTSEIDLPVKRRA-OH) | 
631 | CC[C@H](C)[C@H](NC(=O)[C@H](CCC(=O)O)NC(=O)[C@H](CO)NC(=O)[C@@H](NC(=O)[C@H](CC(C)C)NC(=O)[C@H](C)NC(=O)[C@H](CC(C)C)NC(=O)[C@H](CC(C)C)NC(=O)[C@H](CS)NC(=O)[C@H](CO)NC(=O)[C@H](Cc1ccccc1)NC(=O)CNC(=O)[C@H](CCCNC(=N)N)NC(=O)[C@@H]1CCCN1C(=O)[C@H](C)NC(=O)[C@H](CCSC)NC=O)[C@@H](C)O)C(=O)N[C@@H](CC(=O)O)C(=O)N[C@@H](CC(C)C)C(=O)N1CCC[C@H]1C(=O)N[C@H](C(=O)N[C@@H](CCCCN)C(=O)N[C@@H](CCCNC(=N)N)C(=O)N[C@@H](CCCNC(=N)N)C(=O)N[C@@H](C)C(=O)O)C(C)C [L11A] (For-MAPRGFSCLLALTSEIDLPVKRRA-OH) | 
282 | CC[C@H](C)[C@H](NC(=O)[C@H](CCC(=O)O)NC(=O)[C@H](CO)NC(=O)[C@@H](NC(=O)[C@H](CC(C)C)NC(=O)[C@H](CC(C)C)NC(=O)[C@H](CC(C)C)NC(=O)[C@H](CC(C)C)NC(=O)[C@H](CS)NC(=O)[C@H](CO)NC(=O)[C@H](Cc1ccccc1)NC(=O)CNC(=O)[C@H](C)NC(=O)[C@@H]1CCCN1C(=O)[C@H](C)NC(=O)[C@H](CCSC)NC=O)[C@@H](C)O)C(=O)N[C@@H](CC(=O)O)C(=O)N[C@@H](CC(C)C)C(=O)N1CCC[C@H]1C(=O)N[C@H](C(=O)N[C@@H](CCCCN)C(=O)N[C@@H](CCCNC(=N)N)C(=O)N[C@@H](CCCNC(=N)N)C(=O)N[C@@H](C)C(=O)O)C(C)C [R4A] (For-MAPAGFSCLLLLTSEIDLPVKRRA-OH) | 
100 | CC[C@H](C)[C@H](NC(=O)[C@H](CCC(=O)O)NC(=O)[C@H](CO)NC(=O)[C@@H](NC(=O)[C@H](CC(C)C)NC(=O)[C@H](CC(C)C)NC(=O)[C@H](CC(C)C)NC(=O)[C@H](CC(C)C)NC(=O)[C@H](CS)NC(=O)[C@H](CO)NC(=O)[C@H](C)NC(=O)CNC(=O)[C@H](CCCNC(=N)N)NC(=O)[C@@H]1CCCN1C(=O)[C@H](C)NC(=O)[C@H](CCSC)NC=O)[C@@H](C)O)C(=O)N[C@@H](CC(=O)O)C(=O)N[C@@H](CC(C)C)C(=O)N1CCC[C@H]1C(=O)N[C@H](C(=O)N[C@@H](CCCCN)C(=O)N[C@@H](CCCNC(=N)N)C(=O)N[C@@H](CCCNC(=N)N)C(=O)N[C@@H](C)C(=O)O)C(C)C [F6A] (For-MAPRGASCLLLLTSEIDLPVKRRA-OH) | 
46.8 | CC[C@H](C)[C@H](NC(=O)[C@H](CCC(=O)O)NC(=O)[C@H](CO)NC(=O)[C@@H](NC(=O)[C@H](CC(C)C)NC(=O)[C@H](CC(C)C)NC(=O)[C@H](CC(C)C)NC(=O)[C@H](CC(C)C)NC(=O)[C@H](CS)NC(=O)[C@H](CO)NC(=O)[C@H](Cc1ccccc1)NC(=O)CNC(=O)[C@H](CCCNC(=N)N)NC(=O)[C@@H]1CCCN1C(=O)[C@H](Cc1c[nH]c2ccccc12)NC(=O)[C@H](CCSC)NC=O)[C@@H](C)O)C(=O)N[C@@H](CC(=O)O)C(=O)N[C@@H](CC(C)C)C(=O)N1CCC[C@H]1C(=O)N[C@H](C(=O)N[C@@H](CCCCN)C(=O)N[C@@H](CCCNC(=N)N)C(=O)N[C@@H](CCCNC(=N)N)C(=O)N[C@@H](C)C(=O)O)C(C)C [A2W] (For-MWPRGFSCLLLLTSEIDLPVKRRA-OH) | 
